Legend:
MKN-45 cells = experiment: Inhibition of MKN-45 proliferation (MTT); format: cell-based, human; details: Homo sapiens, MKN-45, MKN-45 proliferation
Summary of the method: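 Viability measured by MTT dye reduction on day 5 after compound addition on day 2 to MKN-45 gastric adenocarcinoma cells (high Met expression) seeded on day 1 in complete medium.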

c-Met = c-Met (Homo sapiens, UniProt P08581); experiment: Inhibition of c-Met kinase phosphorylation in MKN-45 cells (cell based ELISA); parameters: endogenous in cells; host or cells: MKN-45; details: 1 h
Protocol: Inhibition of c-Met Kinase Phosphorylation in MKN-45 Cells:
MKN45 cells are a prototype of “c-Met addicted” cells having constitutively activated c-Met kinase similar to that observed in sub-sects of gastric or hepatocellular cancer patients with dysregulated c-Met kinase activity. Inhibition of Met phosphorylation was determined using a cell based ELISA assay according to the following schedule:
Day 1: MKN-45 cells were plated in 96-well plates in complete growth medium.
Day 2: Inhibitors at the desired concentration were added to the plates and incubated for 1 h and lysed subsequently.
Lysates were transferred to NUNC Maxisorp plates coated with anti-cMet receptor antibody. Phopho-tyrosine mAb and HRP-lined anti-mouse IgG were used as primary and secondary antibodies respectively. Optical density was measured on a microplate reader (BMG Labtech., Germany) at […]. Inhibition of c-Met phosphorylation in this cell line indicates a therapeutic potential for test compounds in patients diagnosed with cancers caused by aberrant c-Met kinase signalling.

Met kinase = Met kinase (Homo sapiens, UniProt P08581); experiment: MET kinase assay (colorimetric determination of c-Met kinase activity, HTScan Met Kinase Assay Kit); format: biochemical; parameters: purchased Cell Signalling Technology, Beverly, Mass; details: for IC50: c-Met kinase
Description: 1. MET Kinase Assay Protocol:
Colorimetric Determination of c-Met Kinase Activity
The receptor tyrosine kinase c-Met is a heterodimeric transmembrane glycoprotein involved in several cellular processes that aid in tumor progression. Phosphorylation of the tyrosine residues in the c-Met kinase domain is critical for its activity and the resulting down-stream effects. The colorimetric assay allows detection of the phosphorylated form of a biotinylated peptide upon activation of human recombinant Met kinase.
MET Kinase Assay Protocol:
c-Met Kinase activity shall be determined using an HTScan® Met Kinase Assay Kit (Cell Signalling Technology, Beverly, Mass.) with modifications. All incubations are carried out at room temperature. Briefly, 12.5 μl of a 4× reaction cocktail (DTT/Kinase buffer containing appropriate quantity of human Met kinase) is added to each well of a 96-well plate containing 12.5 μl pre-diluted compound of interest and incubated for 5 minutes. After the initial incubation, 25 μl/well of 2×ATP/biotinylated peptide is added and incubated for an additional 30 minutes. The reaction is terminated by the addition of 50 μl/well stop buffer (50 mM EDTA, pH 8.0). The reaction mixture (25 μl/well) is then transferred to a streptavidin coated plate (Perkin Elmer, Cat#4009-0010) containing 75 μl dH2O and incubated for 60 minutes. The plate is washed with 200 μl/well wash buffer (1×PBS, 0.05% Tween-20). After washing, 100 μl/well phospho-tyrosine mAb (1:1000 in wash buffer containing 1% BSA) is added and incubated for 60 minutes. After another round of washes, 100 μl/well europium labelled anti-mouse IgG (1:500 in wash buffer containing 1% BSA) is added and incubated for an additional 30 minutes. Following additional washes, 100 μl/well Delfia® enhancement solution (Perkin Elmer, Cat#1244-105) is added and incubated for 45 minutes. Florescence is measured on a microplate reader (BMG Labtech., Germany) at 340 nm (excitation) and 615 nm (emission) for calculating % inhibition. Data generated can be analyzed further using Graphpad Prism (Graphpad software, San Diego Calif.) for determination of IC50.

Chain of c-Met (P08581 25-1390): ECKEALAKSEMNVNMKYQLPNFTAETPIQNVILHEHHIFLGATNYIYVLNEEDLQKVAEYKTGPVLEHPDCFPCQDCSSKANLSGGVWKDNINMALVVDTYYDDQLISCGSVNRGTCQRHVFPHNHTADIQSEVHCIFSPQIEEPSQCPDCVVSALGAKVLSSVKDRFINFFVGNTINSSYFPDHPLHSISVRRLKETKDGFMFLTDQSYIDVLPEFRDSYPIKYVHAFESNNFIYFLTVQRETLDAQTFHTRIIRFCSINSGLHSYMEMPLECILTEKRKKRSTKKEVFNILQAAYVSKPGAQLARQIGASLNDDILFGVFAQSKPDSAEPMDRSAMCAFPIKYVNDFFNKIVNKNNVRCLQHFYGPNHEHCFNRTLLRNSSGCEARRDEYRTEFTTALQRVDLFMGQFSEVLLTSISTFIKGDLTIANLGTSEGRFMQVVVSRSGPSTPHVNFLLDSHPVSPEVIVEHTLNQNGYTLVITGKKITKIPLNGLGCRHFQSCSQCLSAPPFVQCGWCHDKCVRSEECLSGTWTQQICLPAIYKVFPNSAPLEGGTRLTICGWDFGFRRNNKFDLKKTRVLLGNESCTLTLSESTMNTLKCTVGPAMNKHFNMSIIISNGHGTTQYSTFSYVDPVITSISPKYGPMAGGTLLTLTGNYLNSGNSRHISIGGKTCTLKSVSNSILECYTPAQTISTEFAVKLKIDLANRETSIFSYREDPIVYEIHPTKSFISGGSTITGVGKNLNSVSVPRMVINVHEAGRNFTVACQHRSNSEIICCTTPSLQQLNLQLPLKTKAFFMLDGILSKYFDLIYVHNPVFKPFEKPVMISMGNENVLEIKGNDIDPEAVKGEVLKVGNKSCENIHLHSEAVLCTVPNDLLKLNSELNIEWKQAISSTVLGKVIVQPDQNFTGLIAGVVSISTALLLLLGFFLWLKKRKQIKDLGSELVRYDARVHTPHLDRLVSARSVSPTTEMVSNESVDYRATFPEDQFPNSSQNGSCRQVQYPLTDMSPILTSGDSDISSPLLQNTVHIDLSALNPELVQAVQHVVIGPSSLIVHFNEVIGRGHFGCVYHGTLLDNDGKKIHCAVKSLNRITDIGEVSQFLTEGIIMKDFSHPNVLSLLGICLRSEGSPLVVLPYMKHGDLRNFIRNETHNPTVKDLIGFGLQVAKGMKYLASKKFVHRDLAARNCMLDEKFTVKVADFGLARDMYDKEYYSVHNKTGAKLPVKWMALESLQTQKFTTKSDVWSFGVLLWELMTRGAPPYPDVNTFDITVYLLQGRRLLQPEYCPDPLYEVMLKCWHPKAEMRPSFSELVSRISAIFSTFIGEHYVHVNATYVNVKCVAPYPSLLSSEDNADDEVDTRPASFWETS
Chain of Met kinase (P08581 25-1390): as above

SMILES | GI50 (MKN-45 cells) | IC50 (c-Met) | melting point | inhibition at 1 µM (Met kinase) | IC50 (Met kinase) | inhibition at 0.1 µM (MKN-45 cells) | inhibition at 1 µM (MKN-45 cells)
CCNC(=O)c1ccc(-c2ccc3nnn(Cc4ccc5ncccc5c4)c3n2)cc1F [Ex43] | ≤ 50 nM | 50 to 150 nM |  |  |  |  | 
COc1cccc(-c2ccc3nnn(Cc4ccc5ncccc5c4)c3n2)c1 [Ex 2, 6-((5-(3-Methoxyphenyl)-3H-[1,2,3]triazolo[4,5-b]pyridin-3-yl)methyl)quinoline] | > 1000 nM |  | 133 to 135 °C | 75 to 100% | 50 to 100 nM |  | 
OCc1ccc(-c2ccc3nnn(Cc4ccc5ncccc5c4)c3n2)cc1 [Ex 6, (4-(3-(quinolin-6-ylmethyl)-3H-[1,2,3]triazolo[4,5-b]pyridin-5-yl)phenyl)methanol] | 150 to 500 nM |  | 187 to 189 °C | 75 to 100% | 50 to 100 nM |  | 
O=C(O)c1ccc(-c2ccc3nnn(Cc4ccc5ncccc5c4)c3n2)cc1 [Ex 8, 4-(3-(quinolin-6-ylmethyl)-3H-[1,2,3]triazolo[4,5-b]pyridin-5-yl)benzoic acid] | > 1000 nM |  | 245 to 247 °C | 75 to 100% | 50 to 100 nM |  | 
O=C(O)c1ccc(-c2ccc3nnn(Cc4ccc5ncccc5c4)c3n2)cc1F [Ex 13, 2-Fluoro-4-(3-(quinolin-6-ylmethyl)-3H-[1,2,3]triazolo[4,5-b]pyridin-5-yl)benzoic acid] |  |  | 254 to 257 °C | 75 to 100% | 50 to 100 nM |  | 
NC(=O)c1ccc(-c2ccc3nnn(Cc4ccc5ncccc5c4)c3n2)cc1 [Ex 21, 4-(3-(quinolin-6-ylmethyl)-3H-[1,2,3]triazolo[4,5-b]pyridin-5-yl)benzamide] | 150 to 500 nM |  | 229 to 231 °C | 50 to 75% | 250 to 1000 nM |  | 
O=C(NC1CC1)c1ccc(-c2ccc3nnn(Cc4ccc5ncccc5c4)c3n2)cc1F [Ex 46, N-Cyclopropyl-2-fluoro-4-(3-(quinolin-6-ylmethyl)-3H-[1,2,3]triazolo[4,5-b]pyridin-5-yl)benzamide] | ≤ 50 nM | 50 to 150 nM |  |  |  |  | 
CC(c1ccc2ncccc2c1)n1nnc2ccc(-c3cnn(CCO)c3)nc21 (centres unmarked) [Ex 164, 2-(4-(3-(1-(Quinolin-6-yl)ethyl)-3H-[1,2,3]triazolo[4,5-b]pyridin-5-yl)-1H-pyrazol-1-yl)ethanol] | 50 to 150 nM | 50 to 150 nM | 188 to 191 °C |  |  |  | 
O=Cc1cc(-c2ccc3nnn(Cc4ccc5ncccc5c4)c3n2)cs1 [Ex 182, 4-(3-(Quinolin-6-ylmethyl)-3H-[1,2,3]triazolo[4,5-b]pyridin-5-yl)thiophene-2-carbaldehyde] |  |  | 195 to 197 °C |  |  | < 25% | 25 to 50%
COc1ncc(-c2ccc3nnn(Cc4ccc5ncccc5c4)c3n2)cn1 [Ex 183, 6-((5-(2-Methoxypyrimidin-5-yl)-3H-[1,2,3]triazolo[4,5-b]pyridin-3-yl)methyl)quinoline] |  |  | 201 to 203 °C |  |  | < 25% | 
c1cnc2ccc(Cn3nnc4ccc(-c5ccc6c(c5)OCO6)nc43)cc2c1 [Ex 184, 6-((5-(Benzo[d][1,3]dioxol-5-yl)-3H-[1,2,3]triazolo[4,5-b]pyridin-3-yl)methyl)quinoline] |  |  | 179 to 181 °C |  |  | < 25% | < 25%
c1cnc2ccc(Cn3nnc4ccc(-c5ccc6c(c5)CCO6)nc43)cc2c1 [Ex 185, 6-((5-(2,3-Dihydrobenzofuran-5-yl)-3H-[1,2,3]triazolo[4,5-b]pyridin-3-yl)methyl) quinoline] |  |  | 131 to 133 °C |  |  | < 25% | < 25%
Nc1ccc(-c2ccc3nnn(Cc4ccc5ncccc5c4)c3n2)cn1 [Ex 186, 5-(3-(Quinolin-6-ylmethyl)-3H-[1,2,3]triazolo[4,5-b]pyridin-5-yl)pyridin-2-amine] |  |  | 194 to 197 °C |  |  | < 25% | < 25%
FCCn1cc(-c2ccc3nnn(Cc4ccc5ncccc5c4)c3n2)cn1 [Ex 187, 6-((5-(1-(2-fluoroethyl)-1H-pyrazol-4-yl)-3H-[1,2,3]triazolo[4,5-b]pyridin-3-yl)methyl)quinoline] | ≤ 50 nM |  | 168 to 170 °C |  |  | 75 to 100% | 
OCc1cc(-c2ccc3nnn(Cc4ccc5ncccc5c4)c3n2)cs1 [Ex 188, (4-(3-(Quinolin-6-ylmethyl)-3H-[1,2,3]triazolo[4,5-b]pyridin-5-yl)thiophen-2-yl) methanol] | 50 to 150 nM |  | 188 to 191 °C |  |  | 75 to 100% | 
CCc1n[nH]c2cc(-c3ccc4nnn(Cc5ccc6ncccc6c5)c4n3)ccc12 [Ex 191, 6-((5-(3-ethyl-1H-indazol-6-yl)-3H-[1,2,3]triazolo[4,5-b]pyridin-3-yl)methyl)quinoline] |  |  | 211 to 213 °C |  |  | 25 to 50% | 25 to 50%
Cc1csc(-c2ccc3nnn(Cc4ccc5ncccc5c4)c3n2)c1 [Ex 193, 6-((5-(4-Methylthiophen-2-yl)-3H-[1,2,3]triazolo[4,5-b]pyridin-3-yl)methyl)quinoline] |  |  | 153 to 156 °C |  |  | < 25% | 50 to 75%
Cc1ccc(-c2ccc3nnn(Cc4ccc5ncccc5c4)c3n2)s1 [Ex 194, 6-((5-(5-Methylthiophen-2-yl)-3H-[1,2,3]triazolo[4,5-b]pyridin-3-yl)methyl)quinoline] |  |  | 154 to 156 °C |  |  | < 25% | 50 to 75%
c1cnc2ccc(Cn3nnc4ccc(-c5ccc(N6CCOCC6)nc5)nc43)cc2c1 [Ex 195, 4-(5-(3-(Quinolin-6-ylmethyl)-3H-[1,2,3]triazolo[4,5-b]pyridin-5-yl)pyridin-2-yl)morpholine] |  |  | 183 to 185 °C |  |  | 25 to 50% | 50 to 75%
c1cnc2ccc(Cn3nnc4ccc(-c5ccc(N6CCCCC6)nc5)nc43)cc2c1 [Ex 196, 6-((5-(6-(Piperidin-1-yl)pyridin-3-yl)-3H-[1,2,3]triazolo[4,5-b]pyridin-3-yl)methyl)quinoline] |  |  | 133 to 135 °C |  |  | < 25% | < 25%
CCn1cc(-c2ccc3nnn(Cc4ccc5ncccc5c4)c3n2)cn1 [Ex 197, 6-((5-(1-Ethyl-1H-pyrazol-4-yl)-3H-[1,2,3]triazolo[4,5-b]pyridin-3-yl)methyl)quinoline] |  |  | 132 to 134 °C |  |  | 25 to 50% | 
CC(C)n1cc(-c2ccc3nnn(Cc4ccc5ncccc5c4)c3n2)cn1 [Ex 198, 6-((5-(1-Isopropyl-1H-pyrazol-4-yl)-3H-[1,2,3]triazolo[4,5-b]pyridin-3-yl)methyl)quinoline] |  |  | 126 to 128 °C |  |  | < 25% | 
CC(C)Cn1cc(-c2ccc3nnn(Cc4ccc5ncccc5c4)c3n2)cn1 [Ex 199, 6-((5-(1-Isobutyl-1H-pyrazol-4-yl)-3H-[1,2,3]triazolo[4,5-b]pyridin-3-yl)methyl)quinoline] |  |  | 160 to 163 °C |  |  | < 25% | 
C[C@@H](c1ccc2ncccc2c1)n1nnc2ccc(-c3ccc(C(N)=O)c(Cl)c3)nc21 [Ex 221, (−)-2-chloro-4-(3-(1-(quinolin-6-yl)ethyl)-3H-[1,2,3]triazolo[4,5-b]pyridin-5-yl) benzamide] | ≤ 50 nM |  |  | 75 to 100% | 50 to 100 nM | 50 to 75% | 
C[C@H](c1ccc2ncccc2c1)n1nnc2ccc(-c3ccc(C(N)=O)c(Cl)c3)nc21 [Ex 222, (+)-2-chloro-4-(3-(1-(quinolin-6-yl)ethyl)-3H-[1,2,3]triazolo[4,5-b]pyridin-5-yl) benzamide] |  |  |  | 50 to 75% | 250 to 1000 nM | 25 to 50% | 

From US10590129B2 (Incozen Therapeutics Pvt. Ltd., priority 2010, dated 2020)
